This test concerns the target T1, human COX-2 enzyme (Homo sapiens, UniProt P35354).
T1 construct: purchased
T1 sequence (P35354 18-604): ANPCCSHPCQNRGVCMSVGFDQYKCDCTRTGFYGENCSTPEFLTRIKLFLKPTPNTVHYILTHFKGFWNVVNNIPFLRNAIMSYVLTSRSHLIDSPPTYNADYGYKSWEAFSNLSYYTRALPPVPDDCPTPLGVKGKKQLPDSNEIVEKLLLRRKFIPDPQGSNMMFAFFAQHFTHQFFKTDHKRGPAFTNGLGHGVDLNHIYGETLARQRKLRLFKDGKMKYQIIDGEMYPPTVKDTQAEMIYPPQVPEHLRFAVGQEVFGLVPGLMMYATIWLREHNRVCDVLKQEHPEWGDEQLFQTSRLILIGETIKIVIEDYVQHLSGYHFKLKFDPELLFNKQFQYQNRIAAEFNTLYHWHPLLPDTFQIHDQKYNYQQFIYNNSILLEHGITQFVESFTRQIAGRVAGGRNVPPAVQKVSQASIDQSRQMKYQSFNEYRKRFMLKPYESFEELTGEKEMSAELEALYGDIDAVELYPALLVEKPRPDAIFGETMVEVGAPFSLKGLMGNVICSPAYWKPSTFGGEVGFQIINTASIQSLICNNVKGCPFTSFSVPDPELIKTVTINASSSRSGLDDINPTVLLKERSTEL
The test is described as follows: Cyclooxygenases (COX-2) enzyme inhibition assay, COX (human) Inhibitor Screening Assay Kit with prostaglandin ELISA readout. Particulars: 10 μM compound, in vitro, ELISA plate incubation 18 hours, read-out: % Inhibition (COX-2) Mean ± SEM. In kind it is biochemical. On the procedure:
According to manufacturer instructions, a COX inhibition assay was performed using COX (human) Inhibitor Screening Assay Kit for the compounds 7-imino-5-(1H-indol-3-yl)-1,3-substituted-7,8-dihydropyrimido[4,5-d]pyrimidine-2,4(1H,3H)-dione derivatives (4a-c). All reagents and buffers were prepared in ultrapure water. All stock solutions of the compounds and the positive controls (Indomethacin and Celecoxib) were dissolved in DMSO. In each inhibitor sample tube, 160 μL reaction buffer, 10 μL of heme, 10 μL of diluted COX-2 enzyme, and 10 μL of the diluted inhibitor was added to get a final concentration of 100 μM. […] 10 μL of the vehicle control (DMSO) was added to the background tubes, and COX enzyme's 100% initial activity was obtained. All reaction tubes were incubated for 10 minutes at 37° C. Following this incubation, 10 μL of the substrate, arachidonic acid (AA), was added to all test tubes, mixed, and further incubated for precisely 30 seconds at 37° C. Then, 30 μL of SnCl2 solution was added to each reaction tube to stop the enzyme catalysis. All reaction tubes were removed from the incubator, vortexed, and incubated again for 5 min at room temperature. Reaction tubes were stored at 4° C. to quantify the prostaglandin formation by competitive enzyme-linked immunosorbent assay (ELISA). ELISA standards were prepared in test tubes to perform the competitive ELISA, and dilutions were prepared with the ELISA buffer. The standards, COX reaction dilutions, and background samples were serially diluted. […] Blank (to assess the background absorbance caused by Ellman's reagent) and total activity (TA) (to determine the enzymatic activity of the AChE-linked tracer) wells were left empty, 100 μL and 50 μL of the ELISA buffer were added to the nonspecific binding (NSB) and maximum binding (B0), respectively. […] Finally, the plate reading was done at a wavelength of 405 nm with a Microplate reader from BioTek (by Agilent), and data were collected using Gen5™ (by Agilent) analysis software. […]
On to `N=c1nc(-c2c[nH]c3ccccc23)c2c(=O)[nH]c(=O)[nH]c2[nH]1` [Compound 4a, 7-Imino-5-(1H-indol-3-yl)-7,8-dihydropyrimido[4,5-d]pyrimidine-2,4(1H,3H)-dione], for which the inhibition at 10 µM came to 23 ± 5.1%.

For `N=c1nc(-c2c[nH]c3ccccc23)c2c(=O)[nH]c(=S)[nH]c2[nH]1` [Compound 4b, 7-Imino-5-(1H-indol-3-yl)-2-thioxo-2,3,7,8-tetrahydropyrimido[4,5-d]pyrimidin-4(1H)-one], the inhibition at 10 µM amounted to 88 ± 2.91%. For the compound `Cn1c(=O)c2c(-c3c[nH]c4ccccc34)nc(=N)[nH]c2n(C)c1=O` [Compound 4c, 7-Imino-5-(1H-indol-3-yl)-1,3-dimethyl-7,8-dihydropyrimido[4,5-d]pyrimidine-2,4(1H,3H)-dione], the inhibition at 10 µM is 98 ± 1.53%.
